# In PubChem BioAssay (NCI):
#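 Compound exposure: 48 hours, 5 concentrations, 96-well plates. Definition used: TGI = concentration required for complete inhibition of growth.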
# Key:
# Assay in all cases: NCI anticancer screen, dose series, 48 h
# 786-0 renal = system: 786-0 renal
# A549 NSCLC = system: A549 NSCLC
# ACHN renal = system: ACHN renal
# BT-549 breast = system: BT-549 breast
# CAKI-1 renal = system: CAKI-1 renal
# CCRF-CEM leukemia = system: CCRF-CEM leukemia
# COLO 205 colon = system: COLO 205 colon
# DU-145 prostate = system: DU-145 prostate
# EKVX NSCLC = system: EKVX NSCLC
# HCC-2998 colon = system: HCC-2998 colon
# HCT-116 colon = system: HCT-116 colon
# HCT-15 colon = system: HCT-15 colon
# HL-60(TB) leukemia = system: HL-60(TB) leukemia
# HOP-62 NSCLC = system: HOP-62 NSCLC
# HT29 colon = system: HT29 colon
# K-562 leukemia = system: K-562 leukemia
# KM12 colon = system: KM12 colon
# LOX IMVI melanoma = system: LOX IMVI melanoma
# M14 melanoma = system: M14 melanoma
# MALME-3M melanoma = system: MALME-3M melanoma
# MCF7 breast = system: MCF7 breast
# MDA-MB-231 breast = system: MDA-MB-231 breast
# MDA-MB-435 = system: MDA-MB-435
# MDA-N = system: MDA-N
# MOLT-4 leukemia = system: MOLT-4 leukemia
# NCI-H23 lung = system: NCI-H23 lung
# NCI-H460 lung = system: NCI-H460 lung
# NCI/ADR-RES ovarian = system: NCI/ADR-RES ovarian
# OVCAR-3 ovarian = system: OVCAR-3 ovarian
# OVCAR-4 ovarian = system: OVCAR-4 ovarian
# OVCAR-5 ovarian = system: OVCAR-5 ovarian
# OVCAR-8 ovarian = system: OVCAR-8 ovarian
# PC-3 prostate = system: PC-3 prostate
# RPMI-8226 leukemia = system: RPMI-8226 leukemia
# SF-295 CNS = system: SF-295 CNS
# SK-MEL-2 melanoma = system: SK-MEL-2 melanoma
# SK-MEL-28 melanoma = system: SK-MEL-28 melanoma
# SK-MEL-5 melanoma = system: SK-MEL-5 melanoma
# SN12C renal = system: SN12C renal
# SNB-19 CNS = system: SNB-19 CNS
# SR leukemia = system: SR leukemia
# TK-10 renal = system: TK-10 renal
# U251 CNS = system: U251 CNS
# UACC-257 melanoma = system: UACC-257 melanoma
# UO-31 renal = system: UO-31 renal
# HOP-92 NSCLC = system: HOP-92 NSCLC
# HS 578T breast = system: HS 578T breast
# IGROV1 ovarian = system: IGROV1 ovarian
# NCI-H226 lung = system: NCI-H226 lung
# NCI-H522 lung = system: NCI-H522 lung
# RXF 393 renal = system: RXF 393 renal
# SF-268 CNS = system: SF-268 CNS
# SF-539 CNS = system: SF-539 CNS
# SK-OV-3 ovarian = system: SK-OV-3 ovarian
# SNB-75 CNS = system: SNB-75 CNS
# SW-620 colon = system: SW-620 colon
# UACC-62 melanoma = system: UACC-62 melanoma
structure (smiles),measurement,setting,value
NNC(=O)c1nnn(CCc2ccccc2)c1C(=O)NN,TGI,786-0 renal,> 100 µM
same,TGI,A549 NSCLC,> 100 µM
same,TGI,ACHN renal,> 100 µM
same,TGI,BT-549 breast,> 100 µM
same,TGI,CAKI-1 renal,> 100 µM
same,TGI,CCRF-CEM leukemia,> 100 µM
same,TGI,COLO 205 colon,> 100 µM
same,TGI,DU-145 prostate,> 100 µM
same,TGI,EKVX NSCLC,> 100 µM
same,TGI,HCC-2998 colon,> 100 µM
same,TGI,HCT-116 colon,> 100 µM
same,TGI,HCT-15 colon,> 100 µM
same,TGI,HL-60(TB) leukemia,> 100 µM
same,TGI,HOP-62 NSCLC,> 100 µM
same,TGI,HT29 colon,> 100 µM
same,TGI,K-562 leukemia,> 100 µM
same,TGI,KM12 colon,> 100 µM
same,TGI,LOX IMVI melanoma,> 100 µM
same,TGI,M14 melanoma,> 100 µM
same,TGI,MALME-3M melanoma,> 100 µM
same,TGI,MCF7 breast,> 100 µM
same,TGI,MDA-MB-231 breast,> 100 µM
same,TGI,MDA-MB-435,> 100 µM
same,TGI,MDA-N,> 100 µM
same,TGI,MOLT-4 leukemia,> 100 µM
same,TGI,NCI-H23 lung,> 100 µM
same,TGI,NCI-H460 lung,> 100 µM
same,TGI,NCI/ADR-RES ovarian,> 100 µM
same,TGI,OVCAR-3 ovarian,> 100 µM
same,TGI,OVCAR-4 ovarian,> 100 µM
same,TGI,OVCAR-5 ovarian,> 100 µM
same,TGI,OVCAR-8 ovarian,> 100 µM
same,TGI,PC-3 prostate,> 100 µM
same,TGI,RPMI-8226 leukemia,> 100 µM
same,TGI,SF-295 CNS,> 100 µM
same,TGI,SK-MEL-2 melanoma,> 100 µM
same,TGI,SK-MEL-28 melanoma,> 100 µM
same,TGI,SK-MEL-5 melanoma,> 100 µM
same,TGI,SN12C renal,> 100 µM
same,TGI,SNB-19 CNS,> 100 µM
same,TGI,SR leukemia,> 100 µM
same,TGI,TK-10 renal,> 100 µM
same,TGI,U251 CNS,> 100 µM
same,TGI,UACC-257 melanoma,> 100 µM
same,TGI,UO-31 renal,> 100 µM
C=C(Nc1ccc([N+](=O)[O-])cc1[N+](=O)[O-])c1c/c(=N\NC(N)=S)c2ccccc2o1,TGI,786-0 renal,> 100 µM
same,TGI,A549 NSCLC,> 100 µM
same,TGI,ACHN renal,> 100 µM
same,TGI,BT-549 breast,> 100 µM
same,TGI,CAKI-1 renal,> 100 µM
same,TGI,CCRF-CEM leukemia,> 100 µM
same,TGI,COLO 205 colon,> 100 µM
same,TGI,DU-145 prostate,> 100 µM
same,TGI,EKVX NSCLC,> 100 µM
same,TGI,HCC-2998 colon,> 100 µM
same,TGI,HCT-116 colon,> 100 µM
same,TGI,HCT-15 colon,> 100 µM
same,TGI,HL-60(TB) leukemia,> 100 µM
same,TGI,HOP-62 NSCLC,> 100 µM
same,TGI,HOP-92 NSCLC,> 100 µM
same,TGI,HS 578T breast,> 100 µM
same,TGI,HT29 colon,> 100 µM
same,TGI,IGROV1 ovarian,> 100 µM
same,TGI,KM12 colon,> 100 µM
same,TGI,LOX IMVI melanoma,> 100 µM
same,TGI,M14 melanoma,> 100 µM
same,TGI,MCF7 breast,> 100 µM
same,TGI,MDA-MB-231 breast,> 100 µM
same,TGI,MDA-MB-435,> 100 µM
same,TGI,MDA-N,> 100 µM
same,TGI,MOLT-4 leukemia,> 100 µM
same,TGI,NCI-H226 lung,> 100 µM
same,TGI,NCI-H23 lung,> 100 µM
same,TGI,NCI-H460 lung,> 100 µM
same,TGI,NCI-H522 lung,> 100 µM
same,TGI,NCI/ADR-RES ovarian,> 100 µM
same,TGI,OVCAR-3 ovarian,86.1 µM
same,TGI,OVCAR-4 ovarian,> 100 µM
same,TGI,OVCAR-5 ovarian,> 100 µM
same,TGI,OVCAR-8 ovarian,> 100 µM
same,TGI,PC-3 prostate,> 100 µM
same,TGI,RXF 393 renal,> 100 µM
same,TGI,SF-268 CNS,> 100 µM
same,TGI,SF-295 CNS,> 100 µM
same,TGI,SF-539 CNS,55.7 µM
same,TGI,SK-MEL-2 melanoma,> 100 µM
same,TGI,SK-MEL-28 melanoma,> 100 µM
same,TGI,SK-MEL-5 melanoma,> 100 µM
same,TGI,SK-OV-3 ovarian,> 100 µM
same,TGI,SN12C renal,> 100 µM
same,TGI,SNB-19 CNS,> 100 µM
same,TGI,SNB-75 CNS,> 100 µM
same,TGI,SR leukemia,68.7 µM
same,TGI,SW-620 colon,> 100 µM
same,TGI,TK-10 renal,> 100 µM
same,TGI,U251 CNS,> 100 µM
same,TGI,UACC-257 melanoma,> 100 µM
same,TGI,UACC-62 melanoma,> 100 µM
same,TGI,UO-31 renal,> 100 µM
